According to patent US11981658B2, “Substituted aminopyridine compounds as EGFR inhibitors” (YUHAN CORPORATION, priority 2021, dated 2024):
Where two headings read alike, the source gives them in different places.

Assays:
EGFR Del19/C797S = EGFR Del19/C797S (Homo sapiens, UniProt P00533, C797S/DEL746-750); experiment: Biochemical EGFR kinase inhibition assay (Lance Ultra TR-FRET), double mutant del19/C797S
In short: (§1)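 Kinase activity is measured by TR-FRET phosphopeptide detection. Compounds span 0.003 μM to 10 μM; the 1 h reaction at room temperature is quenched with EDTA, then labelled antibody (2 nM) is incubated 60 min before reading.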

EGFR Del19/T790M/C797S = EGFR Del19/T790M/C797S (Homo sapiens, UniProt P00533, C797S/DEL746-750/T790M); experiment: Biochemical EGFR kinase inhibition assay (Lance Ultra TR-FRET), triple mutant del19/T790M/C797S
Sequence of EGFR Del19/T790M/C797S (P00533 with tags, fused parts or gaps DEL746-750/T790M/C797S): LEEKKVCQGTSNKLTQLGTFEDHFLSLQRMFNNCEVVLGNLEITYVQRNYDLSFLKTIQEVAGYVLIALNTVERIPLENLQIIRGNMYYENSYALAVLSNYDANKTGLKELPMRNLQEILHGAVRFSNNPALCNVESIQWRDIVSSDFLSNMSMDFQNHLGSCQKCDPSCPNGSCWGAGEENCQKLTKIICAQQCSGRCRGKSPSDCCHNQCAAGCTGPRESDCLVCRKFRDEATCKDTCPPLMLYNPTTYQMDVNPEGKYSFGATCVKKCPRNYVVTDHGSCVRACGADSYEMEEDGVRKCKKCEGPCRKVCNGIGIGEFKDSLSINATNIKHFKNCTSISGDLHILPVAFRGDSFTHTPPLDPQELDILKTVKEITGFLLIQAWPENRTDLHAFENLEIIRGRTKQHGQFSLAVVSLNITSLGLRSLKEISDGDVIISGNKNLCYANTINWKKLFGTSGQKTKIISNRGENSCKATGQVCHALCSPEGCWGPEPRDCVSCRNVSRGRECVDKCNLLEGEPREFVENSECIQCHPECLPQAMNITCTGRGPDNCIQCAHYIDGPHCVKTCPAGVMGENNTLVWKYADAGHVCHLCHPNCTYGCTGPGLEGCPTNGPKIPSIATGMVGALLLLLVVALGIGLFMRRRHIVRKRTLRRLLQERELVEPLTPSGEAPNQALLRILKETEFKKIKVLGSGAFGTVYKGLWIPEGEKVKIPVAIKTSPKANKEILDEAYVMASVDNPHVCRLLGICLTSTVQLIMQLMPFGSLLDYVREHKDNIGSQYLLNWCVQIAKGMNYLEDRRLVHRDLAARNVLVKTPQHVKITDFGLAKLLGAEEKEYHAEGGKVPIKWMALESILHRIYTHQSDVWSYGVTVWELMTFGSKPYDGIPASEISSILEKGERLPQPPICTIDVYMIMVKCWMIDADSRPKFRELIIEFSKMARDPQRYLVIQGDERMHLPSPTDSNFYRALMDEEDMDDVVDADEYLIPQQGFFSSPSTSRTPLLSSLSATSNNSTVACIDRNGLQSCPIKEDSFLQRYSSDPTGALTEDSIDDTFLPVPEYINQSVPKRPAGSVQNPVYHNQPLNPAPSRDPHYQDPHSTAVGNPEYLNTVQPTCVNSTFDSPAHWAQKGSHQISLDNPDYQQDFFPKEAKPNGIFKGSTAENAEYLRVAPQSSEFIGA
In short: as §1

EGFR L858R/T790M/C797S = EGFR L858R/T790M/C797S (Homo sapiens, UniProt P00533, C797S/L858R/T790M); experiment: Biochemical EGFR kinase inhibition assay (Lance Ultra TR-FRET), triple mutant L858R/T790M/C797S
Sequence of EGFR L858R/T790M/C797S (P00533 25-1210 T790M/C797S/L858R): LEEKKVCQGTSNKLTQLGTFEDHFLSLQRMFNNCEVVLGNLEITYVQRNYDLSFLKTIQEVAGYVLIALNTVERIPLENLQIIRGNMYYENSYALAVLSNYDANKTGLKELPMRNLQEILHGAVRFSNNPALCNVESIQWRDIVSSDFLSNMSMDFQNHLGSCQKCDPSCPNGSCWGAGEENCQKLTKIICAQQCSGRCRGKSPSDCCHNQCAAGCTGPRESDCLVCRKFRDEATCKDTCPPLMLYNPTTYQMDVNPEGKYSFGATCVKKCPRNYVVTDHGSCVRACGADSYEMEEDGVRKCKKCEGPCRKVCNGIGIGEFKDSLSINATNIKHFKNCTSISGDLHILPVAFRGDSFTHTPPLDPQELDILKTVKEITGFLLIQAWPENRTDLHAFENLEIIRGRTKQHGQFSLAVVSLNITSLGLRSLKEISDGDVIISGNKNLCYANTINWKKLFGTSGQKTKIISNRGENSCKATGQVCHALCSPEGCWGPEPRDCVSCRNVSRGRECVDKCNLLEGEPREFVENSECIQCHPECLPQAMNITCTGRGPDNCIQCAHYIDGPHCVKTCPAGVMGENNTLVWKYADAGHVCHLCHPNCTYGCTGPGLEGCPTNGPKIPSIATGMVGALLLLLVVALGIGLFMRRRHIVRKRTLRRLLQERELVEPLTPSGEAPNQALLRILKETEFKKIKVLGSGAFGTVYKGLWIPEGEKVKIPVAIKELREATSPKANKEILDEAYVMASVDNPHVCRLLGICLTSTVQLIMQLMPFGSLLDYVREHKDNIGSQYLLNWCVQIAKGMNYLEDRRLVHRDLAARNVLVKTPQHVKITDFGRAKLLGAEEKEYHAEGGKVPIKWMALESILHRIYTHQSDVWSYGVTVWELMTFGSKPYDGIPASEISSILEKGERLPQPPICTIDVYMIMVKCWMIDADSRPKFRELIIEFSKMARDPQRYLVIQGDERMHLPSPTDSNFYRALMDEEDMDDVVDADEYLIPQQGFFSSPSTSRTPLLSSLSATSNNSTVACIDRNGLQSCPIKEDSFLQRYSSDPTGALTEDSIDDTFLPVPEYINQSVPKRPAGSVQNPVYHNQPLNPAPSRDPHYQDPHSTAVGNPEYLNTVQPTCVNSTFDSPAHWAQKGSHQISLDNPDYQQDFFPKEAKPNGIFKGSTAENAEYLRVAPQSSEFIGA
In short: as §1

EGFR L858R/C797S = EGFR L858R/C797S (Homo sapiens, UniProt P00533, C797S/L858R); experiment: Biochemical EGFR kinase inhibition assay (Lance Ultra TR-FRET), double mutant L858R/C797S
In short: as §1

EGFR wildtype (WT) = EGFR wildtype (WT) (Homo sapiens, UniProt P00533); experiment: Biochemical EGFR kinase inhibition assay (Lance Ultra TR-FRET), wildtype
Sequence of EGFR wildtype (WT) (P00533 25-1210): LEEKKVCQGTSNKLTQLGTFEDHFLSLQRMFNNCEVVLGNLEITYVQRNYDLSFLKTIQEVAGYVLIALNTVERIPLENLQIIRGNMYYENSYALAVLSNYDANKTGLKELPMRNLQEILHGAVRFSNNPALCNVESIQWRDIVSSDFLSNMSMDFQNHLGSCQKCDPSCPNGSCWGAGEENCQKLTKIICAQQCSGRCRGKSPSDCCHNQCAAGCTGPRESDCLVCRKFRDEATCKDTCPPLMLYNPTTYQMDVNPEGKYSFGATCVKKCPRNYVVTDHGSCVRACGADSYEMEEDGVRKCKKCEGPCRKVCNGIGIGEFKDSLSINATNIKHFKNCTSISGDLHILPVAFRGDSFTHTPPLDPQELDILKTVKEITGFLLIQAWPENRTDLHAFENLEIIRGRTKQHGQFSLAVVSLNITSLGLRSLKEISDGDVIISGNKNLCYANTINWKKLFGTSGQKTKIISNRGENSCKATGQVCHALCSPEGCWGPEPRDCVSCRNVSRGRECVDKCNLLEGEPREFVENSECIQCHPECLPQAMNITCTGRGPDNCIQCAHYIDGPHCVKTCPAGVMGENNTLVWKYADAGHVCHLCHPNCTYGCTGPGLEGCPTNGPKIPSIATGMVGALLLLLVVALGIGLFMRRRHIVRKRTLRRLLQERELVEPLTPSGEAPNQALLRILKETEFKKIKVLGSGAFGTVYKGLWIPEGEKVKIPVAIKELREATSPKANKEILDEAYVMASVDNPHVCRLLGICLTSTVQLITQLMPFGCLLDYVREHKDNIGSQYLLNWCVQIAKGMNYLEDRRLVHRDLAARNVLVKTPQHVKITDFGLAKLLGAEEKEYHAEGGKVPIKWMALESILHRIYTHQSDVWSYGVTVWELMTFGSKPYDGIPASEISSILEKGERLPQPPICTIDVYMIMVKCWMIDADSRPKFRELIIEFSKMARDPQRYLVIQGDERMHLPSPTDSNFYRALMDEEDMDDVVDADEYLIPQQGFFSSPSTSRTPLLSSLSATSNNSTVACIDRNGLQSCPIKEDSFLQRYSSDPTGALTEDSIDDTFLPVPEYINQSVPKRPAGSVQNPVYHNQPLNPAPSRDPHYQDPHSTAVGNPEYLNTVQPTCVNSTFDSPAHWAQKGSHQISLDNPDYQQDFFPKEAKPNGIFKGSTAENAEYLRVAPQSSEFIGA
In short: as §1

[1] = ATP at Km, read-out: IC50 Del19/C797S (nM), Km ATP
[2] = IC50 Del19/C797S (nM), 100 μM ATP
[3] = ATP at Km, read-out: IC50 Del19/T790M/C797S (nM), Km ATP
[4] = IC50 Del19/T790M/C797S (nM), 100 μM ATP
[5] = ATP at Km, read-out: IC50 L858R/T790M/C797S (nM), Km ATP
[6] = IC50 L858R/T790M/C797S (nM), 100 μM ATP
[7] = ATP at Km, read-out: IC50 L858R/C797S (nM), Km ATP
[8] = IC50 L858R/C797S (nM), 100 μM ATP
[9] = ATP at Km, read-out: IC50 WT (nM), Km ATP
[10] = Km ATP, read-out: IC50 Del19/C797S (nM), Km ATP
[11] = Km ATP, read-out: IC50 Del19/T790M/C797S (nM), Km ATP
[12] = Km ATP, read-out: IC50 L858R/T790M/C797S (nM), Km ATP
[13] = Km ATP, read-out: IC50 L858R/C797S (nM), Km ATP
[14] = Km ATP, read-out: IC50 WT (nM), Km ATP

Sequence of EGFR Del19/C797S (P00533 with tags, fused parts or gaps DEL746-750/C797S): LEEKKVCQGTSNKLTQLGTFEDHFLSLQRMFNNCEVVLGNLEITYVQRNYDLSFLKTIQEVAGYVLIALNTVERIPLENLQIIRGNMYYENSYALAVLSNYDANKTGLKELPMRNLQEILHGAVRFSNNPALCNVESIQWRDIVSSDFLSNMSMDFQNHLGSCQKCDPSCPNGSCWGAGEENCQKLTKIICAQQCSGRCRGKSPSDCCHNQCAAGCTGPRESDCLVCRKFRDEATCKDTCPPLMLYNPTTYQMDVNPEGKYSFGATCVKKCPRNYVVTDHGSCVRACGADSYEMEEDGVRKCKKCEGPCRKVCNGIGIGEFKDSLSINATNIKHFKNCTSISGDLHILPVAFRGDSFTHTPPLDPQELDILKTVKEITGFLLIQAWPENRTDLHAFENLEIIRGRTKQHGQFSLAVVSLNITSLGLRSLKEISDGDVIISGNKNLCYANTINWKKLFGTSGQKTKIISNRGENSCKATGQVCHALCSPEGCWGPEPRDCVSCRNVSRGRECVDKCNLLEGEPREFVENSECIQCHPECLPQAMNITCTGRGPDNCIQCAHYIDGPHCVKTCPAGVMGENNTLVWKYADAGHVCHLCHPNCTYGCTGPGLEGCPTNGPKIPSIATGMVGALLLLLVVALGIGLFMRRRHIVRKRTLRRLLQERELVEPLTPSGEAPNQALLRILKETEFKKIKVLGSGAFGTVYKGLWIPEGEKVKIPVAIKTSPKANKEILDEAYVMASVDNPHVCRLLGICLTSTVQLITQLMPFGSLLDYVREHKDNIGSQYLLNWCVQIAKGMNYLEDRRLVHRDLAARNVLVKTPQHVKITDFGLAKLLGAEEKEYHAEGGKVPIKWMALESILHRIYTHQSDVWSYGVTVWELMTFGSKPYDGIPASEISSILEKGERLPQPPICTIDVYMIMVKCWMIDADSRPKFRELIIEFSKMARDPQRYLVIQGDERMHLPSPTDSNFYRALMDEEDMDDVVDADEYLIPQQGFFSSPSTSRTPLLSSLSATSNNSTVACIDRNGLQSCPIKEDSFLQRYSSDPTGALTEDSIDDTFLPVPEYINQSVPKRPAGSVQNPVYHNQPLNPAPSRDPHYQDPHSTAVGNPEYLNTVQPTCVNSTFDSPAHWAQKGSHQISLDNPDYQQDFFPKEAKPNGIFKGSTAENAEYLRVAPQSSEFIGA

Row | IC50 (EGFR Del19/C797S; [1]) [nM] | IC50 (EGFR Del19/C797S; [2]) [nM] | IC50 (EGFR Del19/T790M/C797S; [3]) [nM] | IC50 (EGFR Del19/T790M/C797S; [4]) [nM] | IC50 (EGFR L858R/T790M/C797S; [5]) [nM] | IC50 (EGFR L858R/T790M/C797S; [6]) [nM] | IC50 (EGFR L858R/C797S; [7]) [nM] | IC50 (EGFR L858R/C797S; [8]) [nM] | IC50 (EGFR wildtype (WT); [9]) [nM] | IC50 (EGFR wildtype (WT); IC50 WT (nM), 100 μM ATP) [nM] | IC50 (EGFR Del19/C797S; [10]) [nM] | IC50 (EGFR Del19/T790M/C797S; [11]) [nM] | IC50 (EGFR L858R/T790M/C797S; [12]) [nM] | IC50 (EGFR L858R/C797S; [13]) [nM] | IC50 (EGFR wildtype (WT); [14]) [nM] | IC50 (EGFR Del19/C797S; Km ATP, read-out: IC50 Del19/C797S (nM) Km ATP) [nM] | IC50 (EGFR Del19/T790M/C797S; Km ATP, read-out: IC50 Del19/T790M/C797S (nM) Km ATP) [nM] | IC50 (EGFR L858R/T790M/C797S; Km ATP, read-out: IC50 L858R/T790M/C797S (nM) Km ATP) [nM] | IC50 (EGFR L858R/C797S; Km ATP, read-out: IC50 L858R/C797S (nM) Km ATP) [nM] | IC50 (EGFR wildtype (WT); Km ATP, read-out: IC50 WT (nM) Km ATP) [nM] | Compound
1 | 0.3 | 0.4 | 0.1 | 0.1 | 0.04 | 0.1 | 1.2 | 9 | 2.6 | 2100 | – | – | – | – | – | – | – | – | – | – | Cn1cc(C#Cc2cnc(Nc3ccnc(-c4cnn(S(=O)(=O)C5CC5)c4)n3)cc2N2CCC3(CCNC3)CC2)cn1 [Example 156, 2-(1-(Cyclopropylsulfonyl)-1H-pyrazol-4-yl)-N-(5-((1-methyl-1H-pyrazol-4-yl)ethynyl)-4-(2,8-diazaspiro[4.5]decan-8-yl)pyridin-2-yl)pyrimidin-4-amine]
2 | 0.3 | 0.4 | 0.1 | 0.2 | 0.1 | 0.2 | 2.1 | 1.3 | 0.9 | 248 | – | – | – | – | – | – | – | – | – | – | CN(C)Cc1ccc(C#Cc2cnc(Nc3ccnc(-c4cnn(S(=O)(=O)C5CC5)c4)n3)cc2N2CCC(C)(CO)CC2)cc1 [Example 254, (1-(2-((2-(1-(Cyclopropylsulfonyl)-1H-pyrazol-4-yl)pyrimidin-4-yl)amino)-5-((4-((dimethylamino)methyl)phenyl)ethynyl)pyridin-4-yl)-4-methylpiperidin-4-yl)methanol]
3 | – | 6.7 | – | 0.5 | – | 0.8 | – | 44.7 | – | > 10000 | – | – | – | – | – | – | – | – | – | – | Cn1cnc(C#Cc2cnc(Nc3ccnc(-c4cnn(S(=O)(=O)C5CC5)c4)n3)cc2N[C@@H]2CC[C@H](O)C2)c1 [Example 223, (1S,3R)-3-((2-((2-(1-(Cyclopropylsulfonyl)-1H-pyrazol-4-yl)pyrimidin-4-yl)amino)-5-((1-methyl-1H-imidazol-4-yl)ethynyl)pyridin-4-yl)amino)cyclopentan-1-ol]
4 | – | 32.3 | – | 1.4 | – | 6.9 | – | 66.2 | – | > 10000 | – | – | – | – | – | – | – | – | – | – | Cc1nc(C#Cc2cnc(Nc3ccnc(-c4cnn(S(=O)(=O)C5CC5)c4)n3)cc2N2CCC(O)CC2)cs1 [Example 211, 1-(2-((2-(1-(Cyclopropylsulfonyl)-1H-pyrazol-4-yl)pyrimidin-4-yl)amino)-5-((2-methylthiazol-4-yl)ethynyl)pyridin-4-yl)piperidin-4-ol]
5 | – | 24.5 | – | 1.7 | – | 3.7 | – | 62.7 | – | > 10000 | 12.5 | 2.1 | 1.3 | 11.1 | 122 | – | – | – | – | – | O=S(=O)(C1CC1)n1cc(-c2nccc(Nc3cc(N4CCC[C@H](O)C4)c(C#Cc4cnn(C(F)(F)F)c4)cn3)n2)cn1 [Example 439, (S)-1-(2-((2-(1-(Cyclopropylsulfonyl)-1H-pyrazol-4-yl)pyrimidin-4-yl)amino)-5-((1-(trifluoromethyl)-1H-pyrazol-4-yl)ethynyl)pyridin-4-yl)piperidin-3-ol]
6 | 5.4 | 9.9 | 0.7 | 0.9 | 0.2 | 0.2 | 3.4 | 78.4 | 52.6 | > 10000 | – | – | – | – | – | – | – | – | – | – | CN(C)C[C@H]1CC[C@@H](Nc2cc(Nc3ccnc(-c4cnn(S(=O)(=O)C5CC5)c4)n3)ncc2C#Cc2cnn(C(F)(F)F)c2)CC1 [Example 314, N^2-(2-(1-(Cyclopropylsulfonyl)-1H-pyrazol-4-yl)pyrimidin-4-yl)-N^4-((1s,4s)-4-((dimethylamino)methyl)cyclohexyl)-5-((1-(trifluoromethyl)-1H-pyrazol-4-yl)ethynyl)pyridine-2,4-diamine]
7 | – | 1840 | – | 8 | – | 14.8 | – | 7530 | – | > 10000 | 239 | 5.6 | 3.3 | 136 | 276 | – | – | – | – | – | CC(=O)C1CCN(c2cc(Nc3ccnc(-c4cnn(S(=O)(=O)C5CC5)c4)n3)ncc2C#Cc2cnn(C(F)(F)F)c2)CC1 [Example 334, 1-(1-(2-((2-(1-(Cyclopropylsulfonyl)-1H-pyrazol-4-yl)pyrimidin-4-yl)amino)-5-((1-(trifluoromethyl)-1H-pyrazol-4-yl)ethynyl)pyridin-4-yl)piperidin-4-yl)ethan-1-one]
8 | – | 3.5 | – | 0.7 | – | 1.3 | – | 46.6 | – | > 10000 | 3.3 | 0.4 | 0.1 | 3.9 | 10.5 | – | – | – | – | – | COC1(O)CCN(c2cc(Nc3ccnc(-c4cnn(S(=O)(=O)C5CC5)c4)n3)ncc2C#Cc2ncc(CN3CCOCC3)cn2)CC1 [Example 365, 1-(2-((2-(1-(Cyclopropylsulfonyl)-1H-pyrazol-4-yl)pyrimidin-4-yl)amino)-5-((5-(morpholinomethyl)pyrimidin-2-yl)ethynyl)pyridin-4-yl)-4-methoxypiperidin-4-ol]
9 | – | 325 | – | 8 | – | 10.9 | – | > 10000 | – | > 10000 | 197 | 6 | 3.3 | – | – | – | – | – | – | – | CC(C)(O)[C@H]1CC[C@@H](Nc2cc(Nc3ccnc(-c4cnn(S(=O)(=O)C5CC5)c4)n3)ncc2C#Cc2cnn(C(F)(F)F)c2)CC1 [Example 337, 2-((1s,4s)-4-((2-((2-(1-(Cyclopropylsulfonyl)-1H-pyrazol-4-yl)pyrimidin-4-yl)amino)-5-((1-(trifluoromethyl)-1H-pyrazol-4-yl)ethynyl)pyridin-4-yl)amino)cyclohexyl)propan-2-ol]
10 | – | 38.2 | – | 3.9 | – | 2.4 | – | 1750 | – | > 10000 | 26.1 | 2 | 1.3 | 50.1 | 295 | – | – | – | – | – | O=S(=O)(C1CC1)n1cc(-c2nccc(Nc3cc(N[C@H]4CC[C@@H](CO)CC4)c(C#Cc4cnn(C(F)(F)F)c4)cn3)n2)cn1 [Example 336, ((1s,4s)-4-((2-((2-(1-(Cyclopropylsulfonyl)-1H-pyrazol-4-yl)pyrimidin-4-yl)amino)-5-((1-(trifluoromethyl)-1H-pyrazol-4-yl)ethynyl)pyridin-4-yl)amino)cyclohexyl)methanol]
11 | – | 1.9 | – | 0.8 | – | 0.6 | – | 5.1 | – | 1100 | – | – | – | – | – | 1.1 | 0.7 | 0.3 | 0.7 | 6 | Cn1cc(C#Cc2cnc(Nc3ccnc(-c4cnn(S(=O)(=O)C5CC5)c4)n3)cc2N2CCC(C)(CO)CC2)cn1 [Example 12, (1-(2-((2-(1-(Cyclopropylsulfonyl)-1H-pyrazol-4-yl)pyrimidin-4-yl)amino)-5-((1-methyl-1H-pyrazol-4-yl)ethynyl)pyridin-4-yl)-4-methylpiperidin-4-yl)methanol]
12 | 6 | 12 | 0.4 | 1.4 | 0.3 | 4.3 | 6.4 | 145 | 44.4 | 6720 | – | – | – | – | – | – | – | – | – | – | Cn1cc(C#Cc2cnc(Nc3ccnc(-c4cnn(S(=O)(=O)C5CC5)c4)n3)cc2N2CCC3(CCNCC3)C2)cn1 [Example 154, 2-(1-(Cyclopropylsulfonyl)-1H-pyrazol-4-yl)-N-(5-((1-methyl-1H-pyrazol-4-yl)ethynyl)-4-(2,8-diazaspiro[4.5]decan-2-yl)pyridin-2-yl)pyrimidin-4-amine]
13 | 4.5 | 7.4 | 0.3 | 0.6 | 0.2 | 0.8 | 14.3 | 184 | 146 | > 10000 | – | – | – | – | – | – | – | – | – | – | C[C@]1(O)CC[C@@H](Nc2cc(Nc3ccnc(-c4cnn(S(=O)(=O)C5CC5)c4)n3)ncc2C#Cc2cnn(CC(F)F)c2)CC1 [Example 323, (1s,4s)-4-((2-((2-(1-(Cyclopropylsulfonyl)-1H-pyrazol-4-yl)pyrimidin-4-yl)amino)-5-((1-(2,2-difluoroethyl)-1H-pyrazol-4-yl)ethynyl)pyridin-4-yl)amino)-1-methylcyclohexan-1-ol]
